Measurements as given in patent US5059442A, “Primary amide esters as low calorie fat mimetics” (Nabisco Brands, Inc., priority 1989, dated 1991).

How the values were obtained:
[1] = test system: porcine pancreatic lipase; assay: in vitro digestibility: hydrolysis with pancreatic lipase; assay type: in vitro ADME; conditions: pH 7.1 buffer, 37° C., in 10 minutes
Experimental: (§1) This example outlines the procedure for estimating the in vitro digestibility of the synthetic fat mimetics of this invention.
(§2) 1. Buffer: A pH 7.1 phosphate buffer is prepared by dissolving 6.8 g KH2 PO4 in 1 L of millipore filtered water (to yield 0.05 M phosphate). Fifty mg Ca(NO3)2 is added and 5.0 g cholic acid (Na salt, an ox bile isolate from Sigma) to give 0.3 mM Ca++ and 0.5 % cholic acid in 0.05 M phosphate. The pH is adjusted to approximately 7.1 with solid NaOH. Several drops of Baker "Resi-analyzed" toluene are added to prevent bacterial growth during storage at 3°-5° C. 2. Lipase: About 15 mg/mL commercial porcine pancreatic lipase from U.S. Biochemical Corporation is dissolved in buffer.
(§3) 3. Substrates and Standards: A 1.0 mL volumetric flask is charged with an amount of lipid substrate calculated to give a concentration of 200 nanomoles per microliter in Baker "Resianalyzed" toluene. (The proper concentration may be approximated by doubling the molecular weight of the lipid in question, dividing by 10, and diluting to the mark; this yields about 200 nanomoles per microliter.) This preparation affords the substrate to be used in the hydrolysis reactions.
(§4) Fatty acids and glyceride standards from Nu Chek or Sigma are prepared for elution on TLC plates (prewashed with 1:1 chloroform/methanol) by diluting the substrate solution with 10:1 toluene (1 part substrate plus 9 parts toluene) in septum vials.
(§5) In a 25 mL Erlenmeyer, emulsify 20 mL buffer and 40 microliters of substrate using an ultrasonic disrupter at a microtip maximum setting for approximately 10 seconds. […] Place in a 37° C. water bath and stir vigorously. After temperature equilibration, add 40 microliters of enzyme solution and start timing. Remove 5.0 mL aliquots at convenient time intervals for analysis. To establish a standard curve for triolein, aliquots are taken at 10, 20, 30 and 40 minutes.
(§6) Add the aliquot to a 15 mL glass centrifuge tube containing a drop of concentrated HCl. Add approximately 3 mL of a 2:1 mixture of CHCl3 :CH3 OH and shake vigorously. Centrifuge at approximately 5000 rpm for 5 minutes and transfer the bottom layer with a Pasteur pipet to a 5 mL septum vial. Repeat the extraction step once and combine the two bottom layers. Evaporate the solvent in nitrogen gas. After about half of the solvent is removed, add an equivalent volume absolute ethanol and continue evaporation in a nitrogen stream until dryness is achieved. Samples may be warmed with a heat gun to facilitate drying.
(§7) When the samples are dry, add exactly 200 microliters of toluene containing 10% DMSO, cap tightly, and spot TLC plate with 2.0 microliters per channel. […]

[2] = as above; assay type: in vitro ADME, porcine; conditions: pig, pH 7.1 buffer, 37° C., same conditions as triolein control
Experimental: as §1, §2, §3, §4, §5, §6, §7

[3] = in vivo animal feeding study for caloric availability; set-up: species or system male Sprague-Dawley rats; conditions: rats, diet of 50% fort and 21% test compound, 14 days; from weight gain and corn oil base line correlation
Excerpt: This example illustrates how the novel fat mimetics of this invention are screened for caloric availability by a carefully controlled in vivo animal feeding study.
An experimental relationship between total calories ingested and animal body weight gain is established by monitoring the body weight gain associated with consumption of a nutritionally balanced diet containing varying concentrations of a reference substance such as corn oil which has a known caloric availability. Correlations between total calories ingested and body weight gain are excellent (r=0.99).
Caloric availability of a test material is evaluated by substituting a specific weight of the test material for the reference substance and observing the body weight gain. The gain in body weight is equated to a total number of calories using the correlation previously established for the reference data. The estimated number of calories ingested are divided by the weight of test material to give the apparent calories per gram for the test material. Generally speaking, in these bioavailability studies, the degree of perianal pelt soiling correlates with reduced bioavailability.
The test animals are six-week-old male Sprague-Dawley rats obtained from the Portage, Michigan facility of the Charles River Laboratories, Inc. After acclimation for 15 days, the test duration is 14 days. […]

[4] = rat, in vivo; cited from earlier work

Molecule	metabolised [2]	other results
CCCCCCCC/C=C\CCCCCCCC(=O)OCC(COC(=O)CCCCCCC/C=C\CCCCCCCC)OC(=O)CCCCCCC/C=C\CCCCCCCC [triolein]		hydrolysis of triglyceride control [1]: substantially hydrolyzed
CCCCCCCC/C=C\CCCCCCCC(=O)NC(C)(COC(=O)CCCCCCC/C=C\CCCCCCCC)COC(=O)CCCCCCC/C=C\CCCCCCCC [Example 4, 2-Methyl-1,3-bis(oleoyloxy)propyl 2-oleamide]	10%	
corn oil		caloric availability of reference substance [4]: 9.0 kcal/gm

Further lines, with some results ahead:

metabolised [2]	Molecule	other results
50%	CCCCCCCC/C=C\CCCCCCCC(=O)NCC(COC(=O)CCCCCCC/C=C\CCCCCCCC)OC(=O)CCCCCCC/C=C\CCCCCCCC (stereo not drawn) [Example 2, 2,3-Bis(oleyoyloxy)propyl oleamide]	caloric availability (kcal/gram upon being metabolized) [3]: about 3.3 kcal/gram
50%	CCCCCCCC/C=C\CCCCCCCC(=O)NC(COC(=O)CCCCCCC/C=C\CCCCCCCC)COC(=O)CCCCCCC/C=C\CCCCCCCC [Example 3, 1,3-Bis(oleoyloxy)propyl 2-oleamide]	
